Test: Visual solubility of 4-vinylphenyl boronic acid with sorbitol as solubilizing agent
Format: physicochemical
Protocol: In this example, sorbitol was used as an illustrative solubilizing agent to improve the solubility of 4-vinylphenyl boronic acid. A stock solution of 20 g of sorbitol in 200 mL of deionized water was prepared to give a sorbitol concentration of 0.55 M. In several plastic sealable containers was placed 11-15 mg of the boronic acid (maximum of 0.1 mmol in each container), and a variety of solutions were added to the containers, sometimes with pH adjustment. Thereafter, the containers were vortex mixed for 5 minutes, and solubility was analyzed visually.

Measured: Soluble?

C=Cc1ccc(B(O)O)cc1 [4-vinylphenyl boronic acid]
yes: Sample # 2: 10 mL stock sorbitol (0.55 M) | Sample # 3: 10 mL stock sorbitol, pH = 14 | Sample # 5: 5 mL deionized H2O, pH = 12.3 | Sample # 9: 2 mL stock sorbitol, 6 mL deionized H2O, pH = 11.0 | Sample # 10: 2 mL stock sorbitol, 10 mL deionized H2O, pH = 10.4 | Sample # 13: 2 mL stock sorbitol, 10 mL deionized H2O, pH = 9.4
no: Sample # 1: 10 mL deionized H2O, 11-15 mg boronic acid, vortex 5 minutes, visual | Sample # 4: 200 μL stock sorbitol, 5 mL deionized H2O | Sample # 6: 1 mL stock sorbitol, 5 mL deionized H2O | Sample # 7: 2 mL stock sorbitol, 6 mL deionized H2O | Sample # 8: 200 μL stock sorbitol, 5 mL deionized H2O, pH = 10.6 | Sample # 11: 10 mL deionized H2O, pH = 9.8 | Sample # 12: 2 mL stock sorbitol, 10 mL deionized H2O, pH = 9.2
